Results taken from US20080214606A1, “Methods for the Identification and Use of Compounds Suitable for the Treatment of Drug Resistant Cancer Cells” (The Government of the United States of America as …, priority 2004, published 2008).

target: ABCB1 (Homo sapiens, UniProt P08183); experiment: Correlation of ABCB1 expression with drug sensitivity across the NCI-60
Experimental: Expression levels are measured by real-time quantitative RT-PCR using the LightCycler RNA Amplification SYBR Green kit and a LightCycler machine (Roche Biochemicals, Indianapolis, Ind.). Specific oligonucleotide probes are designed for each of the ABC transporters using DNAStar Primer Select (DNASTAR Inc.), and they may be synthesized at Lofstrand Laboratories (Gaithersburg, Md.). When possible, the amplicons are designed to encompass exon-intron boundaries to avoid amplification of genomic DNA. Since the Syber Green assay detects accumulation of double stranded DNA, primers are selected (from a battery consisting of about 200 primers) that amplified a single product of the correct size.
RT-PCR is carried out on 150 ng total RNA, in the presence of 250 nM specific primers. Following reverse transcription (20 min at 50° C.), the PCR reaction consists of 45 cycles of denaturation (15 sec at 95° C.), annealing (30 sec at 58° C.), and elongation (30 sec at 72° C.). No-template (water) reaction mixtures are prepared as negative controls.
During PCR amplification, fluorescence emission is measured and recorded in real time by the LightCycler. Crossing point values are calculated, using the LightCycler software package, by the Fit Points analysis method, with baseline fluorescence set at 1. The SyberGreen assay measures accumulation of double-stranded products, and the appearance of primer dimers limits quantitation at high cycle numbers. […] The raw results are expressed as number of cycles to reach the crossing point. If the desired product is not detected, the corresponding value is adjusted to crossing points indicating no expression. To assess the contribution of experimental artifacts, selected cell lines are assessed in replicate.
Both sets are available at http://discover.nci.nih.gov. The two are combined to form a joint dataset that includes 1429 compounds.
To determine quantitatively how well the 47 genes cluster the cell lines by their tissues of origin, a statistical method is employed wherein the kappa statistic is used to indicate how well the observed clusters correspond to the nine tissue-of-origin classifications. […] To control the overall false type 1 error rate, both a step-down procedure (Westfall and Young, 1993, Resampling-Based Multiple Testing: Examples and Methods for p-value Adjustment (New York: Wiley)) and a step-up procedure (Reiner et al., 2003, Bioinformatics 19:368-375) were employed to adjust for multiple testing of all 47 genes simultaneously. In the Benjamini-Hochberg procedure the p-values are computed in the standard way by permutation, assuming that all distributions are exchangeable: the number of values in the permuted data with correlations over a threshold, divided by the number of compounds and by the number of permutations. In this analysis, the False Discovery Rate (q-value) at which each compound would be declared was calculated using the step-up procedure for positively correlated test statistics (again true because all correlations being compared are computed against the same ABC gene): in this procedure the first q-value for the largest correlation is the Bonferroni-corrected p-value for that gene; then further q-values are calculated as qj=max(pj*1429/j, qj-1). This procedure limits the expected proportion of false positives in the list 1, . . . , j to at most qj.

Sequence of ABCB1 (P08183 whole entry): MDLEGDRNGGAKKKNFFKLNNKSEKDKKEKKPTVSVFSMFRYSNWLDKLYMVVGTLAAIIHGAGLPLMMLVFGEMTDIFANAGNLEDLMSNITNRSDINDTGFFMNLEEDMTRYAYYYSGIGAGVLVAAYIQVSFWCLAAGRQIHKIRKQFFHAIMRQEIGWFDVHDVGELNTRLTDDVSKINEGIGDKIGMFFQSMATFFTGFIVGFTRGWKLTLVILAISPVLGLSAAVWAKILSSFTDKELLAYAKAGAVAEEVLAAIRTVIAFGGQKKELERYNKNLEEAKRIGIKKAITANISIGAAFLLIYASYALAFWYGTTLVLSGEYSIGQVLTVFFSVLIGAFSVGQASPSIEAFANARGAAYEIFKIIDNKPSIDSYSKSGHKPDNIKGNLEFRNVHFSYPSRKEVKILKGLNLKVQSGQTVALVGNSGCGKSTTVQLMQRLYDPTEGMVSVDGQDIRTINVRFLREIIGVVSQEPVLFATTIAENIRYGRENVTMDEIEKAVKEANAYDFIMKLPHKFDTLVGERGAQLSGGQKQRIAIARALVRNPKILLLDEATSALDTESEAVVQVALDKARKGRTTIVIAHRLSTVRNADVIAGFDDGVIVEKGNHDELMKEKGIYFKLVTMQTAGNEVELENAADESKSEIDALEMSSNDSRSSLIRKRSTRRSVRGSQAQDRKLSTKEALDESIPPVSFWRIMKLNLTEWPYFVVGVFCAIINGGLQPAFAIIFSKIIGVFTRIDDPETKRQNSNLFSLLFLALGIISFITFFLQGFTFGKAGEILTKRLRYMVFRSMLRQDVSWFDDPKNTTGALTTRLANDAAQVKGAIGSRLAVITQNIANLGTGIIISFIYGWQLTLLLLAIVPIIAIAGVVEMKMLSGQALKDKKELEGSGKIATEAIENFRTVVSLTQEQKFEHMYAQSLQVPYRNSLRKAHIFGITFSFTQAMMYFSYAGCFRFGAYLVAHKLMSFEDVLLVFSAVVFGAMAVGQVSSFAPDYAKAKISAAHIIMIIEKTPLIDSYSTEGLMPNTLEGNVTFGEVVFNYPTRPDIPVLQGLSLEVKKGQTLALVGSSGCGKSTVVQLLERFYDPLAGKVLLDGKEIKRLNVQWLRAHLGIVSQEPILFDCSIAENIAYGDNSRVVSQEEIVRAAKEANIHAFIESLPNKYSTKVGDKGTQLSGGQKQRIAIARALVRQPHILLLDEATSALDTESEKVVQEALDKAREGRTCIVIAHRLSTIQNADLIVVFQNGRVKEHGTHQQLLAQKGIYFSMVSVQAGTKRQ

Compound | Relationship between drug sensitivity and ABCB1 expression (in words) | Pearson's Correlation Coeff
O=c1[nH]cc(F)c(=O)[nH]1 [5-fluorouracil, reference compound] | non-correlated or positively correlated | 
O=C1C=CC(=O)c2c(O)ccc(O)c21 [NSC26647] |  | 0.2476
NC(=O)NO [NSC32065] |  | 0.3336
c1cc2n(n1)CCN2 [NSC51143] |  | 0.4328
CCc1ccccc1N1CCN(C(=O)c2cc(OC)c(OC)c(OC)c2)CC1 [NSC56030] |  | 0.2372
NC(=S)NN=Cc1ncccc1O [NSC95678] |  | 0.2475
C=C(C)C(=O)O[C@H]1CC2=C[C@@H](C[C@@]3(C)O[C@@H]3[C@H]3OC(=O)C(=C)[C@@H]31)OC2=O [NSC100046] |  | 0.2949
C=C1C(=O)O[C@H]2[C@H]1[C@@H](OC(=O)C=C(C)C)CC1=C[C@@H](C[C@@]3(C)O[C@@H]23)OC1=O [NSC102817] |  | 0.2813
Cc1c(CNc2ccc(Cl)c(C(=O)NC(CC(=O)O)C(=O)O)c2)ccc2nc(N)nc(N)c12 (centres unmarked) [NSC132483] |  | 0.3151
Nc1nc(N)c2cc(CNc3ccc(C(=O)NC(CC(=O)O)C(=O)O)c(Cl)c3)ccc2n1 (centres unmarked) [NSC134033] |  | 0.2800
CCCCc1[nH]ccc2c(C)c3nc4ccccc4c3cc12 [NSC142055] |  | 0.3935
Cc1c2cnccc2c(C)c2c1c1ccccc1n2CCOC(=O)c1ccccc1 [NSC163443] |  | 0.2891
CN(Cc1cnc2nc(N)nc(N)c2n1)c1ccc(C(=O)N[C@@H](CCC(=O)O)C(=O)O)c2ccccc12 [NSC174121] |  | 0.2662
Cc1c2ccncc2c(C)c2c1[nH]c1ccc(Cl)cc12 [NSC176326] |  | 0.3552
CCc1c(CNc2ccc(C(=O)NC(CC(=O)O)C(=O)O)cc2)ccc2nc(N)nc(N)c12 (centres unmarked) [NSC184692] |  | 0.2971
CC[C@@]1(O)C[C@H](O[C@H]2C[C@H](N(C)C)[C@H](O)[C@H](C)O2)c2c(cc3c(c2O)C(=O)c2c(O)ccc(O)c2C3=O)[C@H]1C(=O)OC [NSC267229] |  | 0.3505
COc1cccc2c1C(=O)c1c(O)c3c(c(O)c1C2=O)C[C@@](O)(C(C)=O)C[C@@H]3OC1CC(N(Cc2ccccc2)Cc2ccccc2)C(O)C(C)O1.Cl (some centres unmarked) [NSC268242] |  | 0.2268
O=C([O-])c1ccc(C(=O)[O-])c(C(=O)[O-])c1.[H+].[NH-]C1CCCCC1[NH-].[Pt+4] [NSC271674] |  | 0.2678
Cc1cc(N(CCOS(C)(=O)=O)CCOS(C)(=O)=O)ccc1C=Nc1ccc(-c2nc(Cc3ccccc3)sc2C)cc1 [NSC281817] |  | 0.2646

Compound | Relationship between drug sensitivity and ABCB1 expression (in words) | Pearson's Correlation Coeff
CCCOc1ccc(-c2nc(-c3ccc(N=Cc4ccc(N(CCOS(C)(=O)=O)CCOS(C)(=O)=O)cc4C)cc3)cs2)cc1 [NSC281818] |  | 0.2476
Nc1ncnc2c1nc(Cl)n2[C@@H]1O[C@@H]2COP(=O)(O)O[C@H]2[C@H]1O [NSC284751] |  | 0.2759
C=C1C(=O)O[C@@H]2C[C@H]1CC[C@]1(C)O[C@H]1CC/C(C)=C/CC[C@]2(C)O [NSC285706] |  | 0.3654
CC(C)(C)N1CC1CNC(=O)C(=O)NCC1CN1C(C)(C)C (centres unmarked) [NSC298276] |  | 0.3398
CN(C)CCN1C(=O)c2cccc3cc([N+](=O)[O-])cc(c23)C1=O [NSC300288] |  | 0.2734
CCc1nc(N)nc(N)c1-c1ccc(Cl)c([N+](=O)[O-])c1 [NSC302325] |  | 0.2979
CCc1nc(N)nc(N)c1-c1ccc(Cl)c(N=[N+]=[N-])c1 [NSC319947] |  | 0.3098
CCc1nc(N)nc(N)c1-c1ccc(Cl)c(N=NN(C)C)c1 [NSC330465] |  | 0.2872
Cc1c(-c2ccc(-c3ccccc3F)cc2)nc2ccc(F)cc2c1C(=O)O [NSC368390] |  | 0.2331
Nc1ccn([C@@H]2C=C(CO)[C@@H](O)[C@H]2O)c(=O)n1 [NSC375575] |  | 0.2400
CCc1nc(N)nc(N)c1-c1ccc(NC)c([N+](=O)[O-])c1 [NSC382034] |  | 0.3302
CCc1nc(N)nc(N)c1-c1ccc(N(C)Cc2ccccc2)c([N+](=O)[O-])c1 [NSC382035] |  | 0.3180
CCc1nc(N)nc(N)c1-c1ccc(NCCc2ccccc2)c([N+](=O)[O-])c1 [NSC382049] |  | 0.3279
CCc1nc(N)nc(N)c1-c1ccc2c(c1)nnn2CCc1ccccc1 [NSC382053] |  | 0.3841
CCc1nc(N)nc(N)c1-c1ccc2nn(-c3ccccc3)[n+]([O-])c2c1 [NSC382054] |  | 0.3151
COc1ccc(C2COc3cc(O)c(O)cc3C2)cc1 (centres unmarked) [NSC600285] |  | 0.2935
Cc1ccc(C2COc3cc(O)c(O)cc3C2)cc1 (centres unmarked) [NSC600286] |  | 0.2177
CCc1nc(N)nc(N)c1-c1ccc([N+](=O)[O-])c(Cl)c1 [NSC602313] |  | 0.3012
O=S1(=O)CCC2=CC(C(F)(F)F)=CC(C(F)(F)F)=CN21 [NSC605440] |  | 0.2658

Compound | Relationship between drug sensitivity and ABCB1 expression (in words) | Pearson's Correlation Coeff
CS(C)=O.[Cl][Pt][Cl].c1ccc2ncccc2c1 [NSC632790] |  | 0.2677
Nc1nc(N)c2nc(CNc3ccc(C(=O)N[C@@H](CCCNC(=O)c4ccccc4C(=O)O)C(=O)O)cc3)cnc2n1 [NSC633713] |  | 0.2908
COc1ccc(C(=O)c2cc(OC)c(OC)c(OC)c2)cc1 [NSC638498] |  | 0.2464
COc1cc([C@@H]2c3[nH]c4ccccc4c3C[C@H]3COC(=O)N32)cc(OC)c1O [NSC640737] |  | 0.2176
COc1ccc(-c2oc3cc(O)c(OC)c(O)c3c(=O)c2O)cc1 [NSC641548] |  | 0.2632
CN(C)CCNc1ccc2nnn3c4ccc(Cl)cc4c(=O)c1c23 [NSC645818] |  | 0.3377
CC1=C(N2CC2)C(=O)C(C)=C(N2CC2)C1=O [NSC646714] |  | 0.3262
COc1cc(/C=C2\CCC/C(=C\c3ccc(O)c(OC)c3)C2=O)ccc1O [NSC652893] |  | 0.2821
O=c1cc(-c2ccccc2F)[nH]c2cc3c(cc12)OCO3 [NSC656158] |  | 0.2218
O=c1cc(-c2cccc(OCc3ccccc3)c2)[nH]c2cc3c(cc12)OCO3 [NSC657279] |  | 0.2253
CCCOc1cc2c(cc1O)CC[C@@H]1[C@@H]2CC[C@]2(C)[C@@H](O)CC[C@@H]12 [NSC671041] |  | 0.2610
COc1ccc2cc(CNCCCCCCCCNCc3ccc4cc(OC)ccc4c3)ccc2c1 [NSC676427] |  | 0.1843
CCOc1cc2c(cc1O)C(=O)C[C@@H]1[C@@H]2CC[C@]2(C)[C@@H](O)CC[C@@H]12 [NSC679431] |  | 0.2672
C[C@]12CC[C@@H]3c4cc(OCC(F)(F)F)c(O)cc4/C(=N/O)C[C@H]3[C@@H]1CC[C@@H]2O [NSC681683] |  | 0.2079
N#Cc1c(N2CCN(c3ccc([N+](=O)[O-])cc3)CC2)[n+](=O)c2ccc(Cl)cc2n1[O-] [NSC688493] |  | 0.2012
COc1ccc(O)c(/C=N/NC(=S)N2CCCCC2)c1 [NSC689529] |  | 0.3465
O=[N+]([O-])c1ccc(O)c(/C=N/NC(=S)N2CCCCC2)c1 [NSC689530] |  | 0.3398
Cc1cc(C)n(-c2nc3ccccc3c(=O)[nH]2)n1 [NSC691081] |  | 0.4305
